Results published in patent US9951066B2, “Compositions, uses and methods for making them” (Pimera, Inc., priority 2014, dated 2018).
Read-outs that look alike come from different tables or passages of the source.

Tested on: A375 cell line
Assay: Alamar Blue cell viability assay, A375
Assay type: cell-based
Details: Homo sapiens
Method: Inhibitory activity on cell proliferation of representative compounds of the invention was determined using an Alamar Blue cell viability assay as described hereafter.
3000 cancer cells in 100 uL of cell culture media were plated in each well of a 96-well clear bottom, black wall cell culture-pretreated plate.
The next day compounds are serially diluted (3-fold in cell culture media) across a 96-well polypropylene mother plate from row A to row F, to yield 6 concentrations (10 uM, 3.3 uM, 1.1 uM, 370 nM, 124 nM and 41 nM) for each test compound. Rows G and H contain only DMSO.
Once titrations are made, the media in plates with cells were disposed and 100 μL of drug dilutions are transferred to plates with cells. After a ninety six-hour incubation at 37° C., 10 uL of resazurin solution from Alamar Blue Cell Viability kit (Invitrogen, Carlsbad, Calif.) was added to the media and cells were incubated at 37° C. for three more hours. At the end of this incubation the production of resofurin was measured using Spectrmax M2 microplate reader (Molecular Devices, Sunnyvale, Calif.)

[1] = A-375, Table 4, cell proliferation inhibition, Alamar Blue, 96 h incubation, read-out: Pharmaceutical activity in A375 cell line IC50
[2] = A-375, cell proliferation inhibition, Alamar Blue, 96 h incubation, read-out: Pharmaceutical activity IC50 A375
[3] = A-375, 96 h, read-out: Pharmaceutical activity in A375 cell line IC50

Row | SMILES | IC50 [1] [µM] | further results
1 | CNC(=O)c1cc2ccc(NCCN3CCOCC3)nc2n2c1nc1ccccc12 [Compound 11D, 2-(2-Morpholin-4-yl-ethylamino)-1,7,11b-triaza-benzo[c]fluorene-6-carboxylic acid methylamide] | 1 to 5 | –
2 | N#Cc1cc2ccc(NCCn3ccnc3)nc2n2c1nc1ccccc12 [Compound 3G, 2-(2-Imidazol-1-yl-ethylamino)-1,7,11b-triaza-benzo[c]fluorene-6-carbonitrile] | 1 to 5 | –
3 | CC(C)NC(=O)c1cc2ccc(N3CCCN(C)CC3)nc2n2c1nc1ccccc12 [Compound 2A, 2-(4-methyl-[1,4]diazepan-1-yl)-1,7,11b-triazabenzo[c]fluorene-6-carboxylic acid isopropylamide] | – | IC50 [2]: 5 to 10 µM
4 | CC(NC(=O)c1cc2ccc(N3CCCN(C)CC3)nc2n2c1nc1ccccc12)C1CC1 (stereo not drawn) [Compound 2B, 2-(4-Methyl-[1,4]diazepan-1-yl)-1,7,11b-triazabenzo[c]fluorene-6-carboxylic acid (1-cyclopropylethyl)-amide] | – | IC50 [2]: 5 to 10 µM
5 | CN1CCCN(c2ccc3cc(C(=O)NC#N)c4nc5ccccc5n4c3n2)CC1 [Compound 4C] | < 1 | –
6 | CC(C)NC(=O)c1cc2ccc(N3CCN(C)CC3)nc2n2c1nc1ccccc12 [Compound 5D] | – | IC50 [3]: 5 to 10 µM
7 | O=C(NCCN1CCCC1)c1cc2cc(F)cnc2n2c1nc1ccccc12 [Compound 7I, 3-Fluoro-1,7,11b-triaza-benzo[c]fluorene-6-carboxylic acid (2-pyrrolidin-1-yl-ethyl)-amide] | 1 to 5 | –
8 | O=C(NCCN1CCOCC1)c1cc2cc(F)cnc2n2c1nc1ccccc12 [Compound 7G, 3-Fluoro-1,7,11b-triaza-benzo[c]fluorene-6-carboxylic acid (2-morpholin-4-yl-ethyl)-amide] | > 10 | –
9 | CN(C)CCNC(=O)c1cc2cnccc2n2c1nc1ccccc12 [Compound 13D, 3,7,11b-Triaza-benzo[c]fluorene-6-carboxylic acid (2-dimethylamino-ethyl)-amide] | < 1 | –
10 | CONC(=O)c1cc2ccc(N3CCCN(C)CC3)nc2n2c1nc1ccccc12 [Compound 4F, 2-(4-Methyl-[1,4]diazepan-1-yl)-1,7,11b-triaza-benzo[c]fluorene-6-carboxylic acid methoxy-amide] | < 1 | –
11 | CN1CCN(c2ccc3cc(C(=O)NC4CC4)c4nc5ccccc5n4c3n2)CC1 [Compound 5E, 2-(4-Methyl-piperazin-1-yl)-1,7,11b-triaza-benzo[c]fluorene-6-carboxylic acid cyclopropylamide] | 1 to 5 | –
12 | O=C(c1cc2cc(F)cnc2n2c1nc1ccccc12)N1CCCNCC1 [Compound 7D, [1,4]Diazepan-1-yl-(3-fluoro-1,7,11b-triaza-benzo[c]fluoren-6-yl)-methanone] | > 10 | –
13 | CNC(=O)c1cc2ccc(N3CCC[N+](C)(C)CC3)nc2n2c1nc1ccccc12 [Compound 6A, 1,1-Dimethyl-4-(6-methylcarbamoyl-1,7,11b-triaza-benzo[c]fluoren-2-yl)-[1,4]diazepan-1-ium; iodide] | 5 to 10 | –
14 | COCCCNC(=O)c1cc2cnccc2n2c1nc1ccccc12 [Compound 13E, 3,7,11b-Triaza-benzo[c]fluorene-6-carboxylic acid (3-methoxy-propyl)-amide] | 5 to 10 | –
15 | COCCNc1ccc2cc(C#N)c3nc4ccccc4n3c2n1 [Compound 3I, 2-(2-Methoxy-ethylamino)-1,7,11b-triaza-benzo[c]fluorene-6-carbonitrile] | 1 to 5 | –
16 | O=C(NCCN1CCOCC1)c1cc2cnccc2n2c1nc1ccccc12 [Compound 13F, 3,7,11b-Triaza-benzo[c]fluorene-6-carboxylic acid (2-morpholin-4-yl-ethyl)-amide] | 5 to 10 | –
17 | CNNC(=O)c1cc2ccc(N3CCCN(C)CC3)nc2n2c1nc1ccccc12 [Compound 4D, 2-(4-Methyl-[1,4]diazepan-1-yl)-1,7,11b-triaza-benzo[c]fluorene-6-carboxylic acid N′-methyl-hydrazide] | < 1 | –

Row | SMILES | IC50 [1] [µM] | further results
18 | CC(C)NC(=O)c1cc2cnccc2n2c1nc1ccccc12 [Compound 13C, 3,7,11b-Triaza-benzo[c]fluorene-6-carboxylic acid isopropylamide] | 5 to 10 | –
19 | NNC(=O)c1cc2ccc(NCCN3CCOCC3)nc2n2c1nc1ccccc12 [Compound 11C, 2-(2-Morpholin-4-yl-ethylamino)-1,7,11b-triaza-benzo[c]fluorene-6-carboxylic acid hydrazide] | 5 to 10 | –
20 | O=C(O)c1cc2cc(F)cnc2n2c1nc1ccccc12 [Compound 7B, 3-Fluoro-1,7,11b-triaza-benzo[c]fluorene-6-carboxylic acid] | > 10 | –
21 | CNC(=O)c1cc2c(N3CCCN(C)CC3)ccnc2n2c1nc1ccccc12 [Compound 8B, 4-(4-Methyl-[1,4]diazepan-1-yl)-1,7,11b-triaza-benzo[c]fluorene-6-Carboxylic acid methylamide] | < 1 | –
22 | CN1CCN(c2ccc3cc(C(=O)NN)c4nc5ccccc5n4c3n2)CC1 [Compound 5B] | 5 to 10 | –
23 | CN1CCCN(c2ccc3cc(C#N)c4nc5ccccc5n4c3n2)CC1 [Compound 3C, 2-(4-Methyl-[1,4]diazepan-1-yl)-1,7,11b-triaza-benzo[c]fluorene-6-carbonitrile] | < 1 | –
24 | CC(C)NC(=O)c1cc2ccc(N3CCCNCC3)nc2n2c1nc1ccccc12 [Compound 9B, 2-[1,4]Diazepan-1-yl-1,7,11b-triaza-benzo[c]fluorene-6-carboxylic acid isopropylamide] | – | IC50 [3]: 1 to 5 µM
25 | CN(C)CCNC(=O)c1cc2cc(F)cnc2n2c1nc1ccccc12 [Compound 7F, 3-Fluoro-1,7,11b-triaza-benzo[c]fluorene-6-carboxylic acid (2-dimethylamino-ethyl)-amide] | 1 to 5 | –
26 | CN1CCCN(c2ccc3cc(C(=O)NC4CCOCC4)c4nc5ccccc5n4c3n2)CC1 [Compound 2D, 2-(4-methyl-[1,4]diazepan-1-yl)-1,7,11b-triazabenzo[c]fluorene-6-carboxylic acid (tetrahydropyran-4-yl)-amide] | – | IC50 [2]: 1 to 5 µM
27 | CN1CCCN(c2ccc3cc(C(=O)NCC4(C)COC4)c4nc5ccccc5n4c3n2)CC1 [Compound 2F, 2-(4-Methyl-[1,4]diazepan-1-yl)-1,7,11b-triazabenzo[c]fluorene-6-carboxylic acid (3-methyloxetan-3-ylmethyl)-amide] | – | IC50 [2]: 1 to 5 µM
28 | [2H]C([2H])([2H])NC(=O)c1cc2ccc(N3CCCN(C)CC3)nc2n2c1nc1ccccc12 [Compound 4E, 2-(4-Methyl-[1,4]diazepan-1-yl)-1,7,11b-triaza-benzo[c]fluorene-6-carboxylic acid methyl-d3-amide] | 1 to 5 | –
29 | CNC(=O)c1cc2ccc(N3CCN(C)CC3)nc2n2c1nc1ccccc12 [Compound 5C] | 1 to 5 | –
30 | N#Cc1cc2ccc(NCCN3CCOCC3)nc2n2c1nc1ccccc12 [Compound 3E, 2-(2-Morpholin-4-yl-ethylamino)-1,7,11b-triaza-benzo[c]fluorene-6-carbonitrile] | 1 to 5 | –
31 | N#Cc1cc2ccc(N3CCCNCC3)nc2n2c1nc1ccccc12 [Compound 3D, 2-[1,4]Diazepan-1-yl-1,7,11b-triaza-benzo[c]fluorene-6-carbonitrile] | < 1 | –
32 | CN1CCCN(c2ccc3cc(C(=O)Nc4nccs4)c4nc5ccccc5n4c3n2)CC1 [Compound 4A] | 5 to 10 | –
33 | O=C(NCCN1CCCC1)c1cc2cnccc2n2c1nc1ccccc12 [Compound 13G] | < 1 | –
